± gives the standard deviation of the averaged measurements.

Compound in this test: CC(=O)N1CCc2c(c(N3CCCc4cc(-c5cnn(C)c5)c(C(F)F)cc43)nn2C2CCC(CN3CCN(c4ccc5c(c4)C(=O)N(C4CCC(=O)NC4=O)C5=O)CC3)CC2)C1 [CBPD-409]
As to the kind of experiment: AUC of viability dose-response curve (relative to vehicle, 8 doses up to 10 µM) (fraction); higher = less sensitive (more viable); extreme values may be limits of the assay. As for the experimental part:
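PRISM multiplexed pooled barcoded cell line viability screen at the Broad Institute, 887 cancer cell lines treated with CBPD-409 (p300/CBP PROTAC degrader) at 8 concentrations in threefold dilution, top dose 10 µM. The read-out is the area under the dose-response curve of relative viability versus vehicle (n=3). AUC < 0.3 is called strongly sensitive and AUC > 0.8 resistant.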
Turning to YD38_UPPER_AERODIGESTIVE_TRACT, the “AUC of viability dose-response curve” value amounted to 0.559. Consider “PECAPJ41CLONED2_UPPER_AERODIGESTIVE_TRACT”, for which the “AUC of viability dose-response curve” value amounted to 0.662. The result for HDMB03_CENTRAL_NERVOUS_SYSTEM reads 0.453. The value for L33_PANCREAS was 0.692. The value for UMUC5_URINARY_TRACT was 0.749; that for HEC1A_ENDOMETRIUM was 0.407; that for HT144_SKIN was 1. As to CAL120_BREAST, the “AUC of viability dose-response curve” value came out at 0.497. The result for KYSE450_OESOPHAGUS reads 0.761; that for NP3_CENTRAL_NERVOUS_SYSTEM, 0.802. With RCC10RGB_KIDNEY, the “AUC of viability dose-response curve” value was determined as 1. The result for RH36_SOFT_TISSUE reads 0.779; that for NCIH727_LUNG, 0.875. The value for MM127_SKIN was 1; that for “OCIM1_HAEMATOPOIETIC_AND_LYMPHOID_TISSUE” was 0.286; that for JMURTK2_SOFT_TISSUE was 0.399. As to “SUDHL8_HAEMATOPOIETIC_AND_LYMPHOID_TISSUE”, the “AUC of viability dose-response curve” value was found to be 0.726. The result for MESSA_SOFT_TISSUE reads 0.126; that for ACCMESO1_PLEURA, 1; that for NCIH2052_PLEURA, 0.444. In the case of PECAPJ49_UPPER_AERODIGESTIVE_TRACT, the “AUC of viability dose-response curve” value is 0.455. In the case of RMSYM_SOFT_TISSUE, the “AUC of viability dose-response curve” value was determined as 0.394. YH13_CENTRAL_NERVOUS_SYSTEM: the “AUC of viability dose-response curve” value was found to be 0.75. Consider MDAMB468_BREAST, for which the “AUC of viability dose-response curve” value is 0.97. For TT_OESOPHAGUS, the “AUC of viability dose-response curve” value was determined as 0.566. The value for TM87_SOFT_TISSUE was 0.367 ± 0.19; that for PEA1_OVARY was 0.845. The result for YD8_UPPER_AERODIGESTIVE_TRACT reads 0.641; that for DEL_HAEMATOPOIETIC_AND_LYMPHOID_TISSUE, 1. The value for SKNDZ_AUTONOMIC_GANGLIA was 0.267; that for SKLU1_LUNG was 0.753; that for COLO668_LUNG was 0.615. In the case of 647V_URINARY_TRACT, the “AUC of viability dose-response curve” value worked out at 0.394.

In the case of NCIH1568_LUNG, the “AUC of viability dose-response curve” value is 0.958.

Regarding SHP77_LUNG, the “AUC of viability dose-response curve” value turned out to be 0.641. The result for “MEG01_HAEMATOPOIETIC_AND_LYMPHOID_TISSUE” reads 0.74.

As for “HPBALL_HAEMATOPOIETIC_AND_LYMPHOID_TISSUE”, the “AUC of viability dose-response curve” value was found to be 0.878. On to SNUC4_LARGE_INTESTINE, for which the “AUC of viability dose-response curve” value was 0.595. The value for HSC1_SKIN was 1; that for WM2664_SKIN was 0.988.

For the test system HSKTC_OVARY, the “AUC of viability dose-response curve” value came to 1.

For KNS81_CENTRAL_NERVOUS_SYSTEM, the “AUC of viability dose-response curve” value was 1. The result for TGBC52TKB_BILIARY_TRACT reads 0.745; that for BL2_HAEMATOPOIETIC_AND_LYMPHOID_TISSUE, 0.77; that for H157_UPPER_AERODIGESTIVE_TRACT, 0.993. The value for SEM_HAEMATOPOIETIC_AND_LYMPHOID_TISSUE was 0.347. Take T84_LARGE_INTESTINE: the “AUC of viability dose-response curve” value amounted to 1. As to LN464_CENTRAL_NERVOUS_SYSTEM, the “AUC of viability dose-response curve” value was 0.404. In the case of SNU489_CENTRAL_NERVOUS_SYSTEM, the “AUC of viability dose-response curve” value is 1.

As to “DND41_HAEMATOPOIETIC_AND_LYMPHOID_TISSUE”, the “AUC of viability dose-response curve” value stood at 0.567. The result for CHLA200_CENTRAL_NERVOUS_SYSTEM reads 0.168; that for SNU213_PANCREAS, 0.933. The value for FADU_UPPER_AERODIGESTIVE_TRACT was 0.844; that for CW2_LARGE_INTESTINE was 1; that for BT549_BREAST was 1. For EBC1_LUNG, the “AUC of viability dose-response curve” value stood at 0.537. The value for HUH1_LIVER was 0.882; that for NCO2_HAEMATOPOIETIC_AND_LYMPHOID_TISSUE was 0.243; that for RCK8_HAEMATOPOIETIC_AND_LYMPHOID_TISSUE was 0.633. The result for SNU119_OVARY reads 1; that for “OCILY3_HAEMATOPOIETIC_AND_LYMPHOID_TISSUE”, 0.617; that for SNB75_CENTRAL_NERVOUS_SYSTEM, 1.

On to A101D_SKIN, for which the “AUC of viability dose-response curve” value came out at 1. With ICC4_BILIARY_TRACT, the “AUC of viability dose-response curve” value came out at 0.706.

Consider DMS273_LUNG, for which the “AUC of viability dose-response curve” value is 0.976. For “JEKO1_HAEMATOPOIETIC_AND_LYMPHOID_TISSUE”, the “AUC of viability dose-response curve” value stood at 1. With A2058_SKIN, the “AUC of viability dose-response curve” value was 1.

As for MEWO_SKIN, the “AUC of viability dose-response curve” value worked out at 0.268. With NB1_AUTONOMIC_GANGLIA, the “AUC of viability dose-response curve” value was 0.112 ± 0.083. The result for CHLA10_BONE reads 0.97; that for CI1_HAEMATOPOIETIC_AND_LYMPHOID_TISSUE, 0.674. OCIC5X_OVARY: the “AUC of viability dose-response curve” value is 0.69. The value for LC1SQSF_LUNG was 0.991; that for CCSW1_BILIARY_TRACT was 0.832.

As to C4I_CERVIX, the “AUC of viability dose-response curve” value was 0.999. On to NCIH1838_LUNG, for which the “AUC of viability dose-response curve” value worked out at 0.758. On to SKES1_BONE, for which the “AUC of viability dose-response curve” value came to 0.286 ± 0.11. The result for CAL51_BREAST reads 0.595. The value for DETROIT562_UPPER_AERODIGESTIVE_TRACT was 0.68. As to HCC1143_BREAST, the “AUC of viability dose-response curve” value is 0.623.

Turning to SW954_CERVIX, the “AUC of viability dose-response curve” value is 0.702. The result for NUGC3_STOMACH reads 1. The value for NCIH2444_LUNG was 1. In the case of SUM159PT_BREAST, the “AUC of viability dose-response curve” value worked out at 0.732. KP2_PANCREAS: the “AUC of viability dose-response curve” value stood at 0.512. The value for SKGT4_OESOPHAGUS was 0.575; that for OAW42_OVARY was 0.814; that for “U2904_HAEMATOPOIETIC_AND_LYMPHOID_TISSUE” was 0.826. The value for TTC1240_SOFT_TISSUE was 0.187; that for OVKATE_OVARY was 1. For the test system CADOES1_BONE, the “AUC of viability dose-response curve” value was 0.458 ± 0.12. In the case of HEP3B217_LIVER, the “AUC of viability dose-response curve” value came out at 0.4. The result for NCIH1648_LUNG reads 0.448; that for OV56_OVARY, 1. On to LU99_LUNG, for which the “AUC of viability dose-response curve” value is 0.831. Consider G361_SKIN, for which the “AUC of viability dose-response curve” value is 0.186. The result for UMRC7_KIDNEY reads 0.773. For the test system AM38_CENTRAL_NERVOUS_SYSTEM, the “AUC of viability dose-response curve” value is 1.

In the case of KE37_HAEMATOPOIETIC_AND_LYMPHOID_TISSUE, the “AUC of viability dose-response curve” value is 0.925. In the case of TTC549_SOFT_TISSUE, the “AUC of viability dose-response curve” value is 0.52. The value for 95T1000_SOFT_TISSUE was 0.44; that for JHH1_LIVER was 0.282; that for CHLA57_BONE was 0.647. For MDAMB231_BREAST, the “AUC of viability dose-response curve” value was determined as 0.701. On to AMO1_HAEMATOPOIETIC_AND_LYMPHOID_TISSUE, for which the “AUC of viability dose-response curve” value was 0.46. The result for RPMI7951_SKIN reads 1. With KMRC3_KIDNEY, the “AUC of viability dose-response curve” value was found to be 0.906.

Turning to OVK18_OVARY, the “AUC of viability dose-response curve” value stood at 0.365.

For the test system HCC1419_BREAST, the “AUC of viability dose-response curve” value came out at 0.122. The result for KYSE510_OESOPHAGUS reads 0.928; that for “KARPAS1718_HAEMATOPOIETIC_AND_LYMPHOID_TISSUE”, 0.585.

Turning to “MONOMAC1_HAEMATOPOIETIC_AND_LYMPHOID_TISSUE”, the “AUC of viability dose-response curve” value is 1. For the test system PACADD137_PANCREAS, the “AUC of viability dose-response curve” value was 0.587. The value for A673_BONE was 1; that for SNU1079_BILIARY_TRACT was 0.648.

For the test system COLO741_SKIN, the “AUC of viability dose-response curve” value is 0.559.

With HS683_CENTRAL_NERVOUS_SYSTEM, the “AUC of viability dose-response curve” value came out at 1. For the test system GP5D_LARGE_INTESTINE, the “AUC of viability dose-response curve” value worked out at 1.
